The values below are quoted from earlier work in patent publication US20160376245A1, “IMPURITY OF FAMOTIDINE” (GAVIS PHARMACEUTICALS, priority 2015, published 2016).

Molecules are shown by their SMILES. Like-named read-outs stand apart in the source and are kept apart here.

As to `NC(N)=Nc1nc(CSCCC(N)=NS(N)(=O)=O)cs1` [Famotidine, N-(aminosulfonyl)-3-[[[2-[(diaminomethylene)amino]-4-thiazolyl]methyl]thio] propanimidamide], the solubility entry is “practically insoluble” (in ethanol), “freely soluble” (in glacial acetic acid), “slightly soluble” (in methanol) and “very slightly soluble” (in water).
